Source: patent US7964725B2, “Heteroarylbenzamide derivatives for use in the treatment of diabetes” (AstraZeneca AB, priority 2006, dated 2011)

Molecular target: T1, recombinant human pancreatic GLK (Homo sapiens, UniProt P35557)
T1 construct: 6-His (N); made in house; host or cells: E. coli BL21
T1 sequence (P35557 1-465): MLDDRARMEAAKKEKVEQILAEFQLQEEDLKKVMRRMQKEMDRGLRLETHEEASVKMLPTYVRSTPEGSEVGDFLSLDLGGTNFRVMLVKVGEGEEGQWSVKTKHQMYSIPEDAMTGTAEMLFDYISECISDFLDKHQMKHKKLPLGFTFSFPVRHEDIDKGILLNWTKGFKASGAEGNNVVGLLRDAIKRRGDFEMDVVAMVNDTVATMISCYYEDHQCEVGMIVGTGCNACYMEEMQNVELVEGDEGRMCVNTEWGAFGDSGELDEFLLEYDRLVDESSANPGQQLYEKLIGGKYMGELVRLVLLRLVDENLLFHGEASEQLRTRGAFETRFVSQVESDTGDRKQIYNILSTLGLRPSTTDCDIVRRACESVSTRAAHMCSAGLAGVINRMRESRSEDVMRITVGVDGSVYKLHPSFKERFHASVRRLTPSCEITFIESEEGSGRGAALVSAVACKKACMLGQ
Assay: Enzymatic activity: activation of glucokinase in the absence of GLKRP
Format: biochemical
Conditions: G-6-P dehydrogenase NADP/NADPH coupled assay, OD 340 nm
Method: Enzymatic activity of recombinant human pancreatic GLK may be measured by incubating GLK, ATP and glucose. The rate of product formation may be determined by coupling the assay to a G-6-P dehydrogenase, NADP/NADPH system and measuring the linear increase with time of optical density at 340 nm Brocklehurst et al (Diabetes 2004, 53, 535-541). Activation of GLK by compounds can be assessed using this assay in the presence or absence of GLKRP as described in Brocklehurst et al (Diabetes 2004, 53, 535-541).
Human GLK and GLKRP cDNA was obtained by PCR from human pancreatic and hepatic mRNA respectively, using established techniques described in Sambrook J, Fritsch E F & Maniatis T, 1989. PCR primers were designed according to the GLK and GLKRP cDNA sequences shown in Tanizawa et al., Proc Natl Acad Sci 1991 August 15; 88(16):7294-7 and Warner et al., Mamm Genome. 1995 August; 6(8):532-6.
GLK was expressed from the vector pTB375NBSE in E. coli BL21 cells, producing a recombinant protein containing a 6-His tag immediately adjacent to the N-terminal methionine. Alternatively, another suitable vector is pET21(+)DNA, Novagen, Cat number 697703. The 6-His tag was used to allow purification of the recombinant protein on a column packed with nickel-nitrilotriacetic acid agarose purchased from Qiagen (cat no 30250).
With `Cc1cnc(NC(=O)c2cc(Oc3ccc(S(C)(=O)=O)nc3)cc(O[C@@H](C)COC(F)F)c2)cn1` [Example 1, 3-[(2S)-1-(difluoromethoxy)propan-2-yl]oxy-N-(5-methylpyrazin-2-yl)-5-(6-methylsulfonylpyridin-3-yl)oxy-benzamide] the EC50 was 69 nM.
With `Cc1cnc(NC(=O)c2cc(Oc3cnc(C(=O)N(C)C)cn3)cc(O[C@@H](C)COC(F)F)c2)cn1` [Example 2, 5-[3-[(2S)-1-(difluoromethoxy)propan-2-yl]oxy-5-[(5-methylpyrazin-2-yl)carbamoyl]phenoxy]-N,N-dimethyl-pyrazine-2-carboxamide] the EC50 was 55 nM.
Compound `C[C@@H](COC(F)F)Oc1cc(Oc2cnc(C(=O)N(C)C)cn2)cc(C(=O)Nc2cc[nH]n2)c1` [Example 3, 5-[3-[(2S)-1-(Difluoromethoxy)propan-2-yl]oxy-5-(1H-pyrazol-3-ylcarbamoyl)phenoxy]-N,N-dimethyl-pyrazine-2-carboxamide] has an EC50 of 65 nM.
`C[C@@H](COC(F)F)Oc1cc(Oc2ccc(S(C)(=O)=O)nc2)cc(C(=O)Nc2cc[nH]n2)c1` [Example 4, 3-[(2S)-1-(difluoromethoxy)propan-2-yl]oxy-5-(6-methylsulfonylpyridin-3-yl)oxy-N-(1H-pyrazol-3-yl)benzamide] gave an EC50 of 33 nM.
In the case of `C[C@@H](COC(F)F)Oc1cc(Oc2cnc(C(=O)N(C)C)cn2)cc(C(=O)Nc2ccn(C)n2)c1` [Example 5, 5-[3-[(2S)-1-(difluoromethoxy)propan-2-yl]oxy-5-[(1-methylpyrazol-3-yl)carbamoyl]phenoxy]-N,N-dimethyl-pyrazine-2-carboxamide], the EC50 is reported as 79 nM.
With `C[C@@H](COC(F)F)Oc1cc(Oc2ccc(S(C)(=O)=O)nc2)cc(C(=O)Nc2ccn(C)n2)c1` [Example 6, 3-[(2S)-1-(difluoromethoxy)propan-2-yl]oxy-N-(1-methylpyrazol-3-yl)-5-(6-methylsulfonylpyridin-3-yl)oxy-benzamide] the EC50 was 77 nM.

Test system: not given
Assay: not given
Conditions: not given
With `Cc1cnc(NC(=O)c2cc(Oc3cnc(C(=O)N(C)C)cn3)cc(O[C@@H](C)COC(F)F)c2)cn1` [Example 2, 5-[3-[(2S)-1-(difluoromethoxy)propan-2-yl]oxy-5-[(5-methylpyrazin-2-yl)carbamoyl]phenoxy]-N,N-dimethyl-pyrazine-2-carboxamide] the melting point was ~ 75 °C.
